For 16 compounds, T/C results are on record in PubChem BioAssay AID342 (DTP/NCI, 2004).

For this assay, the system named is Swiss mice, Sarcoma 180 sc, mean tumor weight T/C. As to the kind of experiment: NCI In Vivo Anticancer Drug Screen. Data for tumor model Sarcoma 180 (subcutaneous) in Swiss mice. Conditions: endpoint: mean tumor weight, higher = larger tumour. The method in brief: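 Mice bearing transplanted tumors were treated with compound, and survival or tumor size was measured. Values are expressed as the treated-group measurement (T) divided by the vehicle-treated control measurement (C).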

[1] abbreviates: dose: 75.0 mg/kg/injection, schedule: Q#A X014 (ip), vehicle: methylcellulose (MC).
Where [2] appears, read: dose: 50.0 mg/kg/injection, schedule: Q01DX007 (ip), vehicle: carboxymethylcellulose (CMC).
Setting [3] is: dose: 125.0 mg/kg/injection, schedule: Q01DX007 (ip), vehicle: saline.

Structures are written as SMILES. Several values for one entry are separate records, joined by “and”; a condition that tells them apart may be missing. Equal values may be shown once.

Broadly, the T/C is the result in the treated group divided by that in the control group, in per cent. Take `CO[C@@H]1[C@@H](OC2OC(C)C(OC3CC(C)(O)C(OC(=O)CC(C)C)C(C)O3)C(N(C)C)C2O)[C@@H](CC=O)C[C@@H](C)C(=O)/C=C/C2O[C@H]2C[C@@H](C)OC(=O)C[C@H]1OC(C)=O` (stereo partly specified): the T/C was 86 % of control (dose: 25.0 mg/kg/injection, schedule: Q#A X014 (ip), vehicle: methylcellulose (MC)); 116 % of control (dose: 50.0 mg/kg/injection, schedule: Q#A X014 (ip), vehicle: methylcellulose (MC)); 88 % of control under setting [1]; 95 % of control (dose: 100.0 mg/kg/injection, schedule: Q#A X014 (ip), vehicle: methylcellulose (MC)); 96 % of control (dose: 100.0 mg/kg/injection, schedule: Q#A X014 (ip), vehicle: other); 75 % of control (dose: 125.0 mg/kg/injection, schedule: Q#A X014 (ip), vehicle: methylcellulose (MC)). The T/C reads like this: (dose: 125.0 mg/kg/injection, schedule: Q#A X014 (ip), vehicle: other) 113 % of control; (dose: 150.0 mg/kg/injection, schedule: Q#A X014 (ip), vehicle: other) 65 % of control; (dose: 175.0 mg/kg/injection, schedule: Q#A X014 (ip), vehicle: other) 57 % of control.
Turning to `CCn1cnc2c(=S)nc[nH]c21`, the T/C is, setting by setting: under setting [2], 55 % of control; (dose: 100.0 mg/kg/injection, schedule: Q01DX007 (ip), vehicle: carboxymethylcellulose (CMC)) 25 % of control.
Turning to `CCCCCCCCCCCCCCCCC(C(=O)O)C(O)(CC(=O)O)C(=O)O` (stereo unspecified), the T/C (dose: 19.0 mg/kg/injection, schedule: Q01DX007 (ip), vehicle: carboxymethylcellulose (CMC)) is 81 % of control; the T/C (dose: 37.5 mg/kg/injection, schedule: Q01DX007 (ip), vehicle: carboxymethylcellulose (CMC)) was 104 % of control; the T/C (dose: 75.0 mg/kg/injection, schedule: Q01DX007 (ip), vehicle: carboxymethylcellulose (CMC)) is 91 % of control.
Consider `Brc1ccc(-c2csc(Nc3nc(-c4ccc(Br)cc4)cs3)n2)cc1`, for which the T/C was 56 % of control and 73 % of control (dose: 200.0 mg/kg/injection, schedule: Q01DX007 (ip), vehicle: carboxymethylcellulose (CMC)); 52 % of control and 60 % of control (dose: 300.0 mg/kg/injection, schedule: Q01DX007 (ip), vehicle: carboxymethylcellulose (CMC)); 31 % of control (dose: 675.0 mg/kg/injection, schedule: Q01DX007 (ip), vehicle: carboxymethylcellulose (CMC)).
Consider `Cc1cc(N=C2C=CC(=O)C=C2)c(C(C)C)cc1O`, for which the T/C reads like this: (dose: 200.0 mg/kg/injection, schedule: Q01DX007 (ip), vehicle: other) 52 % of control; (dose: 300.0 mg/kg/injection, schedule: Q01DX007 (ip), vehicle: other) 61 % of control; (dose: 450.0 mg/kg/injection, schedule: Q01DX007 (ip), vehicle: other) 59 % of control; (dose: 600.0 mg/kg/injection, schedule: Q01DX007 (ip), vehicle: other) 53 % of control.
Regarding `Nc1ncnc2[nH]ncc12`, the T/C was 74 % of control (dose: 0.55 mg/kg/injection, schedule: Q#A X014 (ip), vehicle: carboxymethylcellulose (CMC)); 79 % of control (dose: 1.1 mg/kg/injection, schedule: Q#A X014 (ip), vehicle: carboxymethylcellulose (CMC)); 76 % of control (dose: 2.2 mg/kg/injection, schedule: Q#A X014 (ip), vehicle: carboxymethylcellulose (CMC)); 87 % of control (dose: 4.4 mg/kg/injection, schedule: Q#A X014 (ip), vehicle: carboxymethylcellulose (CMC)).
On to `COc1ccccc1NC(=O)CSC(N)=O`, for which the T/C reads like this: (dose: 110.0 mg/kg/injection, schedule: Q01DX007 (ip), vehicle: carboxymethylcellulose (CMC)) 78 % of control; (dose: 165.0 mg/kg/injection, schedule: Q01DX007 (ip), vehicle: carboxymethylcellulose (CMC)) 74 % of control; (dose: 250.0 mg/kg/injection, schedule: Q01DX007 (ip), vehicle: carboxymethylcellulose (CMC)) 61 % of control; (dose: 375.0 mg/kg/injection, schedule: Q01DX007 (ip), vehicle: carboxymethylcellulose (CMC)) 28 % of control.
For `CSc1ncnc2c1ncn2C1OC(CO)C(O)C1O` (stereo unspecified), the T/C was 72 % of control (dose: 12.5 mg/kg/injection, schedule: Q01DX007 (ip), vehicle: saline); 88 % of control (dose: 15.0 mg/kg/injection, schedule: Q01DX007 (ip), vehicle: saline); 94 % of control (dose: 17.5 mg/kg/injection, schedule: Q01DX007 (ip), vehicle: saline); 73 % of control (dose: 20.0 mg/kg/injection, schedule: Q01DX007 (ip), vehicle: saline).
On to `C=CCCCCCCCCC(=O)O`, for which the T/C runs as follows: (dose: 7.8 mg/kg/injection, schedule: Q01DX007 (ip), vehicle: saline) 109 % of control; (dose: 15.6 mg/kg/injection, schedule: Q01DX007 (ip), vehicle: saline) 118 % of control; (dose: 31.3 mg/kg/injection, schedule: Q01DX007 (ip), vehicle: saline) 122 % of control; under setting [3], 90 % of control.
For `CC(=O)OCC1OC(n2ncc(=O)[nH]c2=O)C(OC(C)=O)C1OC(C)=O` (stereo unspecified), the T/C was 74 % of control (dose: 375.0 mg/kg/injection, schedule: Q01DX007 (ip), vehicle: other); 93 % of control (dose: 750.0 mg/kg/injection, schedule: Q01DX007 (ip), vehicle: other); 74 % of control (dose: 1500.0 mg/kg/injection, schedule: Q01DX007 (ip), vehicle: other).
`CC(=O)OC/N=[N+](/C)[O-]`: the T/C (dose: 4.68 mg/kg/injection, schedule: Q01DX007 (ip), vehicle: saline) was 84 % of control and the T/C (dose: 9.37 mg/kg/injection, schedule: Q01DX007 (ip), vehicle: saline) was 54 % of control.
With `CC(C)(C#N)C#N`, the T/C was 30 % of control under setting [3]; 36 % of control (dose: 187.0 mg/kg/injection, schedule: Q01DX007 (ip), vehicle: saline); 52 % of control and 58 % of control (dose: 375.0 mg/kg/injection, schedule: Q01DX007 (ip), vehicle: saline).
Regarding `OC1C(O)C(O)C2(CO2)C(O)C1O` (stereo unspecified), the T/C (dose: 150.0 mg/kg/injection, schedule: Q#A X014 (ip), vehicle: saline) was 122 % of control and the T/C (dose: 300.0 mg/kg/injection, schedule: Q#A X014 (ip), vehicle: saline) was 79 % of control.
Take `CC1=NCCc2c1cc1c([nH]c3ccccc31)c2C`: the T/C was 108 % of control (dose: 25.0 mg/kg/injection, schedule: Q01DX007 (ip), vehicle: water); 91 % of control (dose: 50.0 mg/kg/injection, schedule: Q01DX007 (ip), vehicle: water); 72 % of control (dose: 100.0 mg/kg/injection, schedule: Q01DX007 (ip), vehicle: water); 28 % of control (dose: 200.0 mg/kg/injection, schedule: Q01DX007 (ip), vehicle: water).
Turning to `CO/[N+]([O-])=C\C(=O)N/C=C/C(=O)O`, under setting [2], the T/C was 79 % of control.
For `CCCCSc1nc(N)nc2nc[nH]c12`, the T/C by setting is: (dose: 18.75 mg/kg/injection, schedule: Q#A X014 (ip), vehicle: methylcellulose (MC)) 89 % of control; (dose: 37.5 mg/kg/injection, schedule: Q#A X014 (ip), vehicle: methylcellulose (MC)) 78 % of control; under setting [1], 102 % of control; (dose: 150.0 mg/kg/injection, schedule: Q#A X014 (ip), vehicle: methylcellulose (MC)) 59 % of control.
